Test results: patent US10399966B2, “Compounds for treatment of trypanosomes and neurological pathogens and uses thereof” (The University of North Carolina at Chapel Hill, priority 2016, dated 2019)
Counter-ions that a name gives are not always drawn. Like-named read-outs stand apart in the source and are kept apart here. One block for each compound: values may come before it.

Key:
T. b. brucei = assay: In vitro antitrypanosomal activity against T. brucei (growth inhibition); format: cell-based, Trypanosoma brucei
Protocol: Primary hits from the screen were further characterized using a dose-response assay format to determine the EC50. In parallel, the cytotoxicities of these compounds were determined against a proliferating human hepatoma cell line (Huh7). […] SI—CC50/EC50). The final set of confirmed T. brucei hits consisted of 1035 inhibitors. […] In vitro antitrypanosomal activities against T. b. rhodesiense (STIB9000) and cytotoxicities against L6 rat myoblast cells were measured following established protocols (Orhan et al., Mar. Drugs 8:47 (2010). […] All wells including negative controls contained a final of 0.4% DMSO. After incubation of the plates at 37° C. for 48 h, the parasite density was determined using the CellTiter-Glo reagent (Promega), a firefly luciferase assay system that measures the amount of cellular ATP present in plate wells.

[1] = Distribution between mouse plasma and brain (brain penetration, ip); format: in vivo
Protocol: For distribution of compounds between mouse plasma and brain, mice (in groups of 3) were injected with test compounds (5 mg/kg ip) and sacrificed at the indicated times for collection of plasma and brain. Compound was dissolved in 0.4 mL of dosing solution (7% Tween 80, 3% ethanol, 5% DMSO, 0.9% saline) for ip injections. The brains were weighed and immediately frozen, then later homogenized in acetonitrile using a Dounce homogenizer. Prior to animal studies, recovery of test compound was carried out by adding a known amount to a mouse brain in the test extraction solvent and performing the homogenization. Compound recovery was determined by liquid chromatography/tandem mass spectrometry analysis relative to a standard compound amount. Blood was taken from the same mice in heparinized capillary tubes (Fisherbrand) for determination of compound concentration in plasma. The concentration of compound in the brain was obtained by dividing the moles of compound in the brain by the brain volume (obtained from the brain weight assuming 1 g is 1 mL) and correcting for the brain vasculature volume of 2.5% by weight.
Brain penetration studies (Table 14) were initially performed upon compounds 1, 2, and 3, but were expanded to include other compounds in order to explore the SAR of brain penetration. Groups of three mice were given single 5 mg/kg ip doses of the test compounds and were sacrificed 1 h post-dose.

Trypanosoma cruzi = assay: Efficacy against T. cruzi in vitro; format: cell-based; settings: Trypanosoma cruzi; Table 16; read-out: T. Cruzi EC50
human hepatocytes HepG2 = assay: Cytotoxicity against HepG2 cells
[2] = system: human lymphocytes CRL-8155; assay: Cytotoxicity against CRL-8155 cells; settings: human lymphoblasts
Protocol: The selectivity of each compound for the parasite over each of the two cell lines was calculated.

[3] = Trypanosoma brucei, Table 9, read-out: T. brucei EC50
[4] = Trypanosoma brucei, Table 9, read-out: T. brucei EC90
[5] = Table 14, mice, single ip dose 5 mg/kg, one hour post-dose, ± SEM of 3 mice (compound 3: 6 mice)
[6] = Trypanosoma brucei, Table 16, read-out: T. b. brucei EC50
[7] = Trypanosoma brucei, Table 17, read-out: T. b. brucei EC50
[8] = Trypanosoma brucei, Table 17, read-out: T. b. brucei EC90

Brain/plasma ratio ([1]; Table 14, mice, single ip dose 5 mg/kg, one hour post-dose): 1.58 ± 0.484
[compound]Brain [1, 5]: 0.397 ± 0.077 µM
[compound]Plasma [1, 5]: 0.270 ± 0.036 µM
Kp at 1 h ([1]; mouse, brain and plasma, intraperitoneal, 5 mg/kg, Table 7, groups of 3 mice, read-out: Average brain/plasma ratio): 1.58 ± 0.839
concentration at 1 h ([1]; mouse, brain, intraperitoneal, 5 mg/kg, Table 7, groups of 3 mice, read-out: Average [compound] brain): 397 ± 130 nM
concentration at 1 h ([1]; mouse, plasma, intraperitoneal, 5 mg/kg, Table 7, groups of 3 mice, read-out: Average [compound] plasma): 270 ± 62 nM
Compound: O=C(Nc1ccc2oc(-c3ccccc3)nc2c1)N1CCCC1 [Compound 8, 2-Phenyl-5-N-pyrrolidylamidobenzoxazole]
EC50 (T. b. brucei; Trypanosoma brucei, Table 7, read-out: T. brucei EC50): 5.25 µM
EC50 (T. b. brucei; [3]): 5.25 µM
EC90 (T. b. brucei; [4]): > 10 µM

EC50 (Trypanosoma cruzi): 0.39 µM
Compound: O=C(Nc1ccn2cc(-c3ccc(F)c(F)c3)nc2c1)N1CC[C@H](F)C1 [Compound 41, (3S)-N-[2-(3,4-difluorophenyl)imidazo[1,2-a]pyridin-7-yl]-3-fluoropyrrolidine-1-carboxamide]
EC50 (T. b. brucei; [6]): 0.16 µM

EC50 (Trypanosoma cruzi): 2.24 µM
Compound: O=C(Nc1ccn2cc(-c3ccc(F)c(F)c3)nc2c1)N1CCCC1 [Compound 42, N-[2-(3,4-difluorophenyl)imidazo[1,2-a]pyridin-7-yl]pyrrolidine-1-carboxamide]
EC50 (T. b. brucei; [6]): 0.32 µM

EC50 (Trypanosoma cruzi): 2.84 µM
Compound: O=C(Nc1ccn2cc(-c3ccc(F)c(F)c3)nc2c1)N1CCCCC1 [Compound 43, N-[2-(3,4-difluorophenyl)imidazo[1,2-a]pyridin-7-yl]piperidine-1-carboxamide]
EC50 (T. b. brucei; [6]): 1.2 µM

EC50 (Trypanosoma cruzi): 0.94 µM
Compound: O=C(Nc1ccn2cc(-c3cccc(F)c3F)nc2c1)N1CC[C@H](F)C1 [Compound 44, (3S)-N-[2-(2,3-difluorophenyl)imidazo[1,2-a]pyridin-7-yl]-3-fluoropyrrolidine-1-carboxamide]
EC50 (T. b. brucei; [6]): 0.18 µM

EC50 (Trypanosoma cruzi): 1.02 µM
Compound: O=C(Nc1ccn2cc(-c3cccc(F)c3F)nc2c1)N1CCCC1 [Compound 45, N-[2-(2,3-difluorophenyl)imidazo[1,2-a]pyridin-7-yl]pyrrolidine-1-carboxamide]
EC50 (T. b. brucei; [6]): 0.58 µM

EC50 (Trypanosoma cruzi): 0.71 µM
Compound: O=C(Nc1ccn2cc(-c3cccc(F)c3)nc2c1)N1CC[C@H](F)C1 [Compound 47, (3S)-3-fluoro-N-[2-(3-fluorophenyl)imidazo[1,2-a]pyridin-7-yl]pyrrolidine-1-carboxamide]
EC50 (T. b. brucei; [6]): 0.16 µM

EC50 (Trypanosoma cruzi): 3.1 µM
Compound: O=C(Nc1ccn2cc(-c3cccc(F)c3)nc2c1)N1CCCCC1 [Compound 49, N-[2-(3-fluorophenyl)imidazo[1,2-a]pyridin-7-yl]piperidine-1-carboxamide]
EC50 (T. b. brucei; [6]): 0.97 µM

EC50 (Trypanosoma cruzi): 1.08 µM
Compound: O=C(Nc1ccn2cc(-c3ccccc3)nc2c1)N1CC[C@H](F)C1 [Compound 50, (3S)-3-fluoro-N-{2-phenylimidazo[1,2-a]pyridin-7-yl}pyrrolidine-1-carboxamide]
EC50 (T. b. brucei; [6]): 0.62 µM

EC50 (Trypanosoma cruzi): 4.46 µM
Compound: O=C(Nc1ccn2cc(-c3ccccc3)nc2c1)N1CCCC1 [Compound 51, N-{2-phenylimidazo[1,2-a]pyridin-7-yl}pyrrolidine-1-carboxamide]
EC50 (T. b. brucei; [6]): 2.23 µM

EC50 (Trypanosoma cruzi): 2.75 µM
Compound: O=C(Nc1ccn2cc(-c3ccccc3)nc2c1)N1CCCCC1 [Compound 52, N-{2-phenylimidazo[1,2-a]pyridin-7-yl}piperidine-1-carboxamide]
EC50 (T. b. brucei; [6]): 2.51 µM

EC50 (Trypanosoma cruzi): 0.09 µM
Compound: O=C(Nc1cc2nc(-c3ccc(F)c(F)c3)cn2cn1)N1CC[C@H](F)C1 [Compound 53, (3S)-N-[2-(3,4-difluorophenyl)imidazo[1,2-c]pyrimidin-7-yl]-3-fluoropyrrolidine-1-carboxamide]
EC50 (T. b. brucei; [6]): 0.02 µM

Continued, compound first:

Compound: O=C(Nc1ccc2[nH]c(-c3ccccc3)nc2c1)c1ccccc1 [Compound 14, 5-Benzamido-2-phenylbenzimidazole hydrochloride]
EC50 (T. b. brucei; Trypanosoma brucei, read-out: T. brucei EC50): > 10 µM
EC90 (T. b. brucei; Trypanosoma brucei, read-out: T. brucei EC90): > 10 µM

Compound: O=C(Nc1ccc2sc(-c3ccccc3)nc2c1)c1ccsc1 [Compound 19, 2-Phenyl-5-(3-thienylamido)benzothiazole]
EC50 (T. b. brucei; [3]): 1.57 µM
EC90 (T. b. brucei; [4]): 2.49 µM

Compound: O=C(Nc1ccc2sc(-c3ccccc3)nc2c1)c1nccs1 [Compound 20, N-(2-Phenylbenzo[d]thiazol-5-yl)thiazole-2-carboxamide]
EC50 (T. b. brucei; [3]): 5.86 µM
EC90 (T. b. brucei; [4]): > 10 µM

Compound: O=C(Nc1ccc2sc(-c3ccccc3)nc2c1)c1cscn1 [Compound 21, N-(2-Phenylbenzo[d]thiazol-5-yl)thiazole-4-carboxamide]
EC50 (T. b. brucei; [3]): > 10 µM
EC90 (T. b. brucei; [4]): > 10 µM

Compound: O=C(Nc1ccc2sc(-c3cccc(F)c3)nc2c1)N1CCN(C(=O)Nc2ccc3sc(-c4cccc(F)c4)nc3c2)CC1 [Compound 31, N^1,N^4-Bis(2-(3-fluorophenyl)benzothiazol-5-yl)piperazine-1,4-dicarboxamide]
EC50 (T. b. brucei; [3]): > 20 µM
EC90 (T. b. brucei; [4]): > 20 µM

Compound: NC1CCN(C(=O)Nc2ccc3sc(-c4ccc(F)c(F)c4)nc3c2)C1 (centres unmarked) [Compound 37, 2-(3,4-Difluorophenyl)-5-(3-amino-N-pyrrolidylamido)benzothiazole]
EC50 (T. b. brucei; [3]): 2.32 µM
EC90 (T. b. brucei; [4]): 2.72 µM

Compound: O=C(Nc1ccn2cc(-c3cccc(F)c3F)nc2c1)N1CCCCC1 [Compound 46, N-[2-(2,3-difluorophenyl)imidazo[1,2-a]pyridin-7-yl]piperidine-1-carboxamide]
EC50 (Trypanosoma cruzi): 1 µM
EC50 (T. b. brucei; [6]): 0.72 µM

Compound: O=C(Nc1ccn2cc(-c3cccc(F)c3)nc2c1)N1CCCC1 [Compound 48, N-[2-(3-fluorophenyl)imidazo[1,2-a]pyridin-7-yl]pyrrolidine-1-carboxamide]
EC50 (Trypanosoma cruzi): 2.95 µM
EC50 (T. b. brucei; [6]): 0.73 µM

Compound: O=C(Nc1ccn2cc(-c3ccc(F)c(F)c3)nc2n1)N1CC[C@H](F)C1 [Compound 54, (3S)-N-[2-(3,4-difluorophenyl)imidazo[1,2-a]pyrimidin-7-yl]-3-fluoropyrrolidine-1-carboxamide]
EC50 (Trypanosoma cruzi): 2.53 µM
EC50 (T. b. brucei; [6]): > 20 µM

Compound: O=C(Nc1ccc2sc(-c3ccc(F)c(F)c3)nc2c1Br)N1CC[C@H](F)C1 [Compound 55]
EC50 (T. b. brucei; [7]): > 20 µM
EC90 (T. b. brucei; [8]): > 20 µM

Compound: O=C(Nc1cnc2sc(-c3ccc(F)c(F)c3)nc2c1)N1CC[C@H](F)C1 [Compound 56, (S)-2-(3,4-Difluorophenyl)-5-(3-fluoro-N-pyrrolidylamido)-7-azabenzothiazole]
EC50 (T. b. brucei; [7]): 0.181 µM
EC90 (T. b. brucei; [8]): 0.364 µM

Compound: O=C(Nc1ccc2sc(-c3ccc(F)c(F)c3)nc2c1)c1cnco1 [Compound 58, N-(2-(3,4-Difluorophenyl)benzo[d]thiazol-5-yl)oxazole-5-carboxamide]
EC50 (T. b. brucei; [7]): > 20 µM
EC90 (T. b. brucei; [8]): > 20 µM

Compound: Cc1nc(C(=O)Nc2ccc3sc(-c4ccc(F)c(F)c4)nc3c2)c(C)o1 [Compound 60]
EC50 (T. b. brucei; [7]): > 20 µM
EC90 (T. b. brucei; [8]): > 20 µM

Compound: O=C(Nc1ccc2sc(-c3ccc(F)c(F)c3)nc2c1)c1cncs1 [Compound 61]
EC50 (T. b. brucei; [7]): 3.83 µM
EC90 (T. b. brucei; [8]): 7.37 µM

Compound: Cc1nc(C)c(C(=O)Nc2ccc3sc(-c4ccc(F)c(F)c4)nc3c2)s1 [Compound 62]
EC50 (T. b. brucei; [7]): > 20 µM
EC90 (T. b. brucei; [8]): > 20 µM

Compound: N=C(N)c1ccc(OCCCCCOc2ccc(C(=N)N)cc2)cc1 [penth, Pentamidine, reference compound]
EC50 (human hepatocytes HepG2; Homo sapiens, HepG2, read-out: HepG2 EC50): > 100 µM
EC90 (human hepatocytes HepG2; read-out: HepG2 EC90, concentration required to inhibit growth by 90%, human hepatocytes): > 100 µM
EC50 (T. b. brucei; Trypanosoma brucei, Table 11, read-out: T. b. brucei EC50): 0.00105 µM
EC50 ([2]; read-out: CRL-8155 EC50, concentration required to inhibit growth by 50%): 45.4 µM
EC90 ([2]; read-out: CRL-8155 EC90, concentration required to inhibit growth by 90%): > 100 µM

Compound: N-(2-(3,4-Difluorophenyl)benzo[d]thiazol-5-yl)oxazole-4-carboxamide [Compound 57]
EC50 (T. b. brucei; Table 17, read-out: T. b. brucei EC50): > 20 µM
EC90 (T. b. brucei; Table 17, read-out: T. b. brucei EC90): > 20 µM
